Patent US8604190B2, “Hetero isonipecotic modulators of vanilloid VR1 receptor” (Janssen Pharmaceutica NV, priority 2004, dated 2013)

target: T1, human VR1 (Homo sapiens, UniProt Q8NER1); assay: Human VR1 functional assay (FLIPR, intracellular Ca++); assay type: cell-based; settings: A431 cells expressing human VR1, Ca++-sensitive dye, dose-response
T1 construct: expressed in transfected cells; host or cells: A431 cells
Description: The compounds of the invention were tested using a high throughput VR-1 FLIPR assay.
Human VR1 Functional Assay
The functional activity of the test compounds was determined by measuring changes in intracellular calcium concentration using a Ca^++-sensitive fluorescent dye and FLIPR™ technology. Increases in Ca^++ concentration were readily detected upon challenge with resiniferatoxin (RTX). A431 cells expressing human VR1 were seeded on polystyrene 384-well back walled clear bottom assay plates coated with collagen and incubated for 3-4 hours at 37° C. with 5% CO2 in DMEM. Plates were loaded with […] of 2× Dye Solution, incubated for 1-1.5 hours and subsequently tested for agonist-induced increases in intracellular Ca^2+ levels using FLIPR™ technology. Cells were challenged with test compounds (at varying concentrations) and intracellular Ca^++ was measured prior to the addition of resiniferatoxin to all wells to elicit ˜80% maximal response. EC50 or IC50 values were determined from dose-response studies.

T1 sequence (Q8NER1 whole entry): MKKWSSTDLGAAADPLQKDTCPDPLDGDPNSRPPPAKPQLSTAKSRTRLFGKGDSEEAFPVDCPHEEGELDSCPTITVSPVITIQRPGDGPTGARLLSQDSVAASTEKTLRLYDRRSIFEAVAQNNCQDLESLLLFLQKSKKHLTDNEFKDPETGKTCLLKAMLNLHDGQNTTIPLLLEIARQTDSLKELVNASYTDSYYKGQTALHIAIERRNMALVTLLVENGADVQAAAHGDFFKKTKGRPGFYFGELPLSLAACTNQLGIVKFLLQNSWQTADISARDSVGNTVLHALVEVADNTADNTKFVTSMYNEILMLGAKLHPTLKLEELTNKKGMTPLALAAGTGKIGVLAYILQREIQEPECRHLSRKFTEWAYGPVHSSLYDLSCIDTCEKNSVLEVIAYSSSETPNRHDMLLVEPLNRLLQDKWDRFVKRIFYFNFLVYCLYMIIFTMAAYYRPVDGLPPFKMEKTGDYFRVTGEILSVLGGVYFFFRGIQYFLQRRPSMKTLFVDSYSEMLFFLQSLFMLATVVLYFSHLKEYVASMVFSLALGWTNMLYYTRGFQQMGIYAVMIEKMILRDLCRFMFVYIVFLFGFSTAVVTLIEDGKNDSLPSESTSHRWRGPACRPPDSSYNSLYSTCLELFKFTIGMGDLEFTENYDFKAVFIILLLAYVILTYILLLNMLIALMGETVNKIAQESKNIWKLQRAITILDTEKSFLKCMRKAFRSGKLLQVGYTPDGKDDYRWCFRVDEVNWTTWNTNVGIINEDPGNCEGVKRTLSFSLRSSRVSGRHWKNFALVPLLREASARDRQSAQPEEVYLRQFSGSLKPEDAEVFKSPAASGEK

| EC50 | SMILES |
| --- | --- |
| 1.91 µM | O=C(C1CCN(c2cccc3ccccc23)CC1)N1CCCCC1 [Compound 17] |
| 0.27 µM | O=C(C1CCN(c2cccc(-c3ccccc3)c2)CC1)N1CCOCC1 [Compound 3, (1-Biphenyl-3-yl-piperidin-4-yl)-morpholin-4-yl-methanone] |
| 3.7 µM | O=C(C1CCN(c2cccc(C(F)(F)F)c2)CC1)N1CCCCC1 [Compound 28] |
| 1.97 µM | O=C(C1CCN(c2cc(F)cc(F)c2)CC1)N1CCSCC1 [Compound 18] |
| 7.84 µM | Cc1ccccc1N1CCC(C(=O)N2CCCC2)CC1 [Compound 38] |
| 2 µM | Cc1ccc(N2CCC(C(=O)N3CCOCC3)CC2)cc1F [Compound 19] |
| 2.3 µM | Cc1ccc(N2CCC(C(=O)N3CCC(O)CC3)CC2)cc1F [Compound 22] |
| 3.8 µM | CC(=O)N1CCN(C(=O)C2CCN(c3cccc(-c4ccccc4)c3)CC2)CC1 [Compound 30] |
| 2.05 µM | O=C(C1CCN(c2cc(F)cc(F)c2)CC1)N1CCCCC1 [Compound 20] |
| 2.8 µM | O=C(C1CCN(c2cc(F)cc(F)c2)CC1)N1CCC(O)CC1 [Compound 23] |
| 4.1 µM | Cc1cccc(N2CCC(C(=O)N3CCOCC3)CC2)c1 [Compound 32] |
| 0.76 µM | Cc1cccc(N2CCC(C(=O)N3CCSCC3)CC2)c1C [Compound 7] |
| 4 µM | CC(=O)N1CCN(C(=O)C2CCN(c3cccc(C)c3C)CC2)CC1 [Compound 31] |
| 1.42 µM | Cc1ccccc1N1CCC(C(=O)N2CCC(O)CC2)CC1 [Compound 11] |
| 3.53 µM | COc1cccc(N2CCC(C(=O)N3CCOCC3)CC2)c1 [Compound 27] |
| 1.04 µM | Cc1ccc(N2CCC(C(=O)N3CCCCC3)CC2)cc1C [Compound 9] |
| 0.27 µM | Cc1ccc(N2CCC(C(=O)N3CCSCC3)CC2)cc1F [Compound 4, [1-(3-Fluoro-4-methyl-phenyl)-piperidin-4-yl]-thiomorpholin-4-yl-methanone] |
| 5.4 µM | Cc1ccccc1N1CCC(C(=O)N2CCSC2)CC1 [Compound 37] |
| 2.2 µM | O=C(C1CCN(c2cccc(-c3ccccc3)c2)CC1)N1CCSCC1 [Compound 21] |

| EC50 | SMILES |
| --- | --- |
| 4.37 µM | COc1cccc(N2CCC(C(=O)N3CCSCC3)CC2)c1 [Compound 34] |
| 3.8 µM | Cc1cccc(N2CCC(C(=O)N3CCCCC3)CC2)c1 [Compound 29] |
| 3.1 µM | O=C(C1CCN(c2cccc3ccccc23)CC1)N1CCSC1 [Compound 24] |
| 4.1 µM | O=C(C1CCN(c2cccc(-c3ccccc3)c2)CC1)N1CCCCC1 [Compound 33] |
| 1.85 µM | O=C(C1CCN(c2cc(F)cc(F)c2)CC1)N1CCOCC1 [Compound 15] |
| 3.26 µM | Cc1ccccc1N1CCC(C(=O)N2CCCCC2)CC1 [Compound 26] |
| 1.89 µM | Cc1cccc(N2CCC(C(=O)N3CCSC3)CC2)c1C [Compound 16] |
| 1.5 µM | Cc1ccc(N2CCC(C(=O)N3CCOCC3)CC2)cc1C [Compound 12] |
| 5.2 µM | Cc1cccc(N2CCC(C(=O)N3CCC(O)C3)CC2)c1C (centres unmarked) [Compound 36] |
| 1.59 µM | Cc1ccccc1N1CCC(C(=O)N2CCOCC2)CC1 [Compound 13] |
| 3.2 µM | Cc1ccccc1N1CCC(C(=O)N2CCCCCC2)CC1 [Compound 25] |
| 1.3 µM | Cc1ccc(N2CCC(C(=O)N3CCCCC3)CC2)cc1F [Compound 10] |
| 4.6 µM | Cc1cccc(N2CCC(C(=O)N3C(C)CCCC3C)CC2)c1C (centres unmarked) [Compound 35] |
| 1.64 µM | Cc1cccc(N2CCC(C(=O)N3CCCCC3)CC2)c1C [Compound 14] |
| 0.33 µM | O=C(C1CCN(c2cccc(C(F)(F)F)c2)CC1)N1CCOCC1 [Compound 5, [1-(3-Trifluoromethyl-phenyl)-piperidin-4-yl]-morpholin-4-yl-methanone] |
| 0.23 µM | Cc1ccccc1N1CCC(C(=O)N2CCSCC2)CC1 [Compound 1, (1-o-Tolyl-piperidin-4-yl)-thiomorpholin-4-yl-methanone] |
| 0.91 µM | Cc1ccc(N2CCC(C(=O)N3CCC(O)CC3)CC2)cc1C [Compound 8] |
| 0.34 µM | Cc1ccc(N2CCC(C(=O)N3CCSCC3)CC2)cc1C [Compound 6, [1-(3,4-Dimethyl-phenyl)-piperidin-4-yl]-thiomorpholin-4-yl-methanone] |
| 0.24 µM | Cc1cccc(N2CCC(C(=O)N3CCC(O)CC3)CC2)c1C [Compound 2, [1-(2,3-Dimethyl-phenyl)-piperidin-4-yl]-(4-hydroxy-piperidin-1-yl)-methanone] |
